The record followed here is US20060128759A1, “Substituted isoxazole derivatives and their use in pharmaceutics” (MERCKLE GMBH, priority 2002, published 2006).

In the first assay the target is p38α (Homo sapiens, UniProt Q16539). The experiment in a line: Kinase assay (phosphorylation of ATF2 by activated p38α, ELISA readout at 405 nm). Format: biochemical. The settings on record: activated p38α, ATF2 substrate, 100 μM ATP, 37° C., 1 hour; read-out: IC50 p 38. On the procedure: • 1) The mononuclear cells (PBMCs) from human potassium-EDTA whole blood, diluted 1:3, are isolated by density gradient centrifugation (Histopaque®-1.077). The cells are washed twice with DPBS buffer, resuspended in macrophage SFM medium and adjusted to a cell count of 1*10^6 cells/ml. • The resulting PBMCs suspension (samples of in each case 390 μl) and the test substance are preincubated at 37° C. in a CO2 incubator (5% CO2; 95% moisture-saturated air) for 15 min. The samples are then stimulated with in each case 1 μl/ml of LPS (E. coli 026:B6) at 37° C. in a CO2 incubator (5% CO2; 95% moisture-saturated air) for 4 hours. The reaction is stopped by placing the samples on ice, adding DPBS buffer and then centrifuging at 15 880*g for 12 min. The amount of IL-1β and TNFα in the plasma supernatant is then determined by ELISA. • 2) Kinase assay • At 37° C., microtiter plates were coated for one hour with 50 μl of ATF2 solution (20 μg/ml). The plates were washed three times with water, and 50 μl of kinase mixture (50 mM tris-HCl 10 mM MgCl2, 10 mM β-glycerol phosphate, 10 μg/ml of BSA, 1 mM DTT, 100 μM ATP, 100 μM Na3VO4, 10 ng of activated p38α) with or without inhibitor were added into the wells, and the plates were incubated at 37° C. for 1 hour. The plates were washed three times and then incubated with phosphorus-ATF-2 antibody at 37° C. for one hour. The plates were once more washed three times, and goat-antirabbit IgG labeled with alkaline phosphatase was added at 37° C. for one hour (to fix the antibody-phosphorylated protein/substrate complex). The plates were washed three times, and the alkaline phosphatase/substrate solution (3 mM 4-NPP, 50 mM NaHCO3, 50 mM MgCl2, 100 μl/well) was added at 37° C. for 1.5 hours. […] The IC50 values were calculated.
p38α, sequence (Q16539 whole entry): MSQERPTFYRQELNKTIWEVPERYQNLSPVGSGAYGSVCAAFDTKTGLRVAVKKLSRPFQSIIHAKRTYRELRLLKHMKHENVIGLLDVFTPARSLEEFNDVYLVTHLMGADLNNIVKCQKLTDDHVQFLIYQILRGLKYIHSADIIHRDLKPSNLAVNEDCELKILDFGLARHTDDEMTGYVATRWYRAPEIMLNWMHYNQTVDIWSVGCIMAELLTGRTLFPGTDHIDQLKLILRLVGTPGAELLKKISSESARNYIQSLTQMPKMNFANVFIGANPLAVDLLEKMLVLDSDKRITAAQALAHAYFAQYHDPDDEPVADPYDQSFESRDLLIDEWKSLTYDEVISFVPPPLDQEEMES
Background: In an ELISA, binding on a coated surface is turned into a signal by an enzyme label.
In general, IC50 refers to the point on the concentration scale where inhibition reaches its midpoint. Regarding “4-[5-(ethoxyphenyl)-4-(4-fluorophenyl)isoxazol-3-yl]pyridine [Compound 11]”, the IC50 stood at 10 µM.
For the compound `Cc1onc(-c2ccncc2)c1-c1ccc(F)cc1` [Compound 1, 4-[4-(4-fluorophenyl)-5-methylisoxazol-3-yl]pyridine], the IC50 is 67.5 µM.
The same measure, in the same setting: the figure for `CC(=O)Nc1cc(-c2onc(-c3ccncc3)c2-c2ccc(F)cc2)ccn1` [Compound 3, N-{4-[4-(4-fluorophenyl)-3-pyridin-4-ylisoxazol-5-yl]pyridine-2-yl}acetamide] is 30 µM.
With `CN(C)Cc1onc(-c2ccncc2)c1-c1ccc(F)cc1` [Compound 4, [4-(4-fluorophenyl)-3-pyridin-4-ylisoxazol-5-ylmethyl]dimethylamine], the IC50 was 4 µM.
The same measure, in the same setting: the figure for `Fc1ccc(-c2c(-c3ccncc3)noc2-c2ccccc2)cc1` [Compound 5, 4-[4-(4-fluorophenyl)-5-phenylisoxazol-3-yl]pyridine] is 22 µM; for `Fc1ccc(-c2c(-c3ccncc3)noc2-c2ccco2)cc1` [Compound 6, 4-[4-(4-fluorophenyl)-5-furan-2-ylisoxazol-3-yl]pyridine] it is 22 µM; for `Fc1ccc(-c2c(-c3ccncc3)noc2C2CC2)cc1` [Compound 7, 4-[5-cyclopropyl-4-(4-fluorophenyl)isozazol-3-yl]pyridine] it is 28 µM.
`CN(C)c1ccc(-c2onc(-c3ccncc3)c2-c2ccc(F)cc2)cc1` [Compound 8, {4-[4-(4-fluorophenyl)-3-pyridin-4-ylisoxazol-5-yl]phenyl}dimethylamine]: the IC50 came out at 27 µM.
For `Fc1ccc(-c2c(-c3ccncc3)noc2N2CCCCC2)cc1` [Compound 9, 4-[4-(4-fluorophenyl)-5-piperidin-1-ylisoxazol-3-yl]pyridine], the half-maximal inhibitory concentration (IC50) turned out to be 10 µM.
For the compound `COc1ccc(-c2onc(-c3ccncc3)c2-c2ccc(F)cc2)cc1` [Compound 10, 4-[4-(4-fluorophenyl)-5-(4-methoxyphenyl)isoxazol-3-yl]pyridine], the IC50 was 10 µM.

Staying with this assay, now noted: at 10^−5 mol/l; read-out: % inhibition of p 38.
In general, inhibition refers to the share of the control response that was lost under treatment. Regarding `Fc1ccc(-c2noc(-c3ccc(F)cc3)c2-c2ccncc2)cc1` [Compound 14, 4-[3,5-Bis(4-fluorophenyl)isoxazol-4-yl]pyridine], the inhibition at 10 µM came out at 43.6%.
